Assay results reported in ChEMBL document CHEMBL1201862, “PubChem BioAssay data set” (2004).
Activity calls are given as the source filed them.

Tests used:
[1] = biological target: T1, Mannose-6-phosphate isomerase (Homo sapiens, UniProt P34949); test: human PMI inhibitors, high substrate, primary screen, biochemical, fluorescence intensity, high mannose 6-phosphate (AID 1220)
T1 sequence (P34949 whole entry): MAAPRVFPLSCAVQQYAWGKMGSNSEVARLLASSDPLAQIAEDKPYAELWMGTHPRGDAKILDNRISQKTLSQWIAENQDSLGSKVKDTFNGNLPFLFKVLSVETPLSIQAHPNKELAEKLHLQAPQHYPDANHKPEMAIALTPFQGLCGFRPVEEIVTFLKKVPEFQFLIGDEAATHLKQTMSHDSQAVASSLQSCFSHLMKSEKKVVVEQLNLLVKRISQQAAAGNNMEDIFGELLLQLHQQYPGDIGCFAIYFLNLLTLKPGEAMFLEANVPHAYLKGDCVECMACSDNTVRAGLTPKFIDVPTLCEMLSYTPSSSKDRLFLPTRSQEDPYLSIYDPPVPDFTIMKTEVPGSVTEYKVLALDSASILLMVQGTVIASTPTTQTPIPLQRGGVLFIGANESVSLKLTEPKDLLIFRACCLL

[2] = biological target: T2, Sentrin-specific protease 7 (Homo sapiens, UniProt Q9BQF6); type: functional;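 further: Luminescence-based dose-response confirmation of ultra-high-throughput screening hits, measuring inhibition of SENP7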
T2 sequence (Q9BQF6 whole entry): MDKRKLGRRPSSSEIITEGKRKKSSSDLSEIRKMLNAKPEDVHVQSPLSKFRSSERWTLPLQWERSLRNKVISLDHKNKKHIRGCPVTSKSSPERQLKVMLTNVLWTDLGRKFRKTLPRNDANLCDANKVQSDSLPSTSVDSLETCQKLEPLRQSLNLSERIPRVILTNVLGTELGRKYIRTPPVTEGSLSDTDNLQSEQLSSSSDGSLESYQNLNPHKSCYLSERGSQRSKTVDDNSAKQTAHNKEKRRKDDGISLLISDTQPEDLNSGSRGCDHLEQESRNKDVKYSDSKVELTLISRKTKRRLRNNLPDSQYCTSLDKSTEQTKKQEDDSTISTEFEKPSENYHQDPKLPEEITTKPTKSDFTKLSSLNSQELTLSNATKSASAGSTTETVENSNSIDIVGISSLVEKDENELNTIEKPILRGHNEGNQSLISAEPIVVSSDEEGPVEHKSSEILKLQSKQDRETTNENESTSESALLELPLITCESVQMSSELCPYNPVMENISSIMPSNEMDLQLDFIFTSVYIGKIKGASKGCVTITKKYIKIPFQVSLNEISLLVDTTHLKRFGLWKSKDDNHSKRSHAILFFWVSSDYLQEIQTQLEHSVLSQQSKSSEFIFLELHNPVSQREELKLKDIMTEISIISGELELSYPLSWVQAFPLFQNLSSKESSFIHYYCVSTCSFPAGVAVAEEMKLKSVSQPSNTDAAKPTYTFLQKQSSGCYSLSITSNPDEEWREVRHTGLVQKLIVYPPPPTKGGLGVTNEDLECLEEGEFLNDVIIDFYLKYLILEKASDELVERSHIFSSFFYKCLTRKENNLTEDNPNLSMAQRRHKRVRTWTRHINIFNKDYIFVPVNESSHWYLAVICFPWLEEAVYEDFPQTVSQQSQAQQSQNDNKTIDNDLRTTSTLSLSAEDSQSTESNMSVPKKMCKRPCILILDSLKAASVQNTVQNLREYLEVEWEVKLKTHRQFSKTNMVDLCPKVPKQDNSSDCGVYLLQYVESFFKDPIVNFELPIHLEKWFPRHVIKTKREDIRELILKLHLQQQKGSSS

[3] = biological target: T3, Sentrin-specific protease 8 (Homo sapiens, UniProt Q96LD8); type: functional;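 further: luminescence read-out of SENP8 inhibition, dose-response confirmation following an ultra-high-throughput screen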
T3 sequence (Q96LD8 whole entry): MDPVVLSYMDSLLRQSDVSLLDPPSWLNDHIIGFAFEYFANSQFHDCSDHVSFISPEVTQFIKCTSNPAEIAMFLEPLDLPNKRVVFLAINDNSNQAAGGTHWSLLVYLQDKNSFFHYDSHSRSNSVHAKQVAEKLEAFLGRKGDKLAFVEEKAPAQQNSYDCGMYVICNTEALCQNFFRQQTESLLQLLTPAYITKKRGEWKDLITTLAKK

[4] = biological target: T4, Sentrin-specific protease 6 (Homo sapiens, UniProt Q9GZR1); type: functional;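 further: Luminescence-based dose-response confirmatory assay of SENP6 inhibition, following up an ultra-high-throughput screen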
T4 sequence (Q9GZR1 whole entry): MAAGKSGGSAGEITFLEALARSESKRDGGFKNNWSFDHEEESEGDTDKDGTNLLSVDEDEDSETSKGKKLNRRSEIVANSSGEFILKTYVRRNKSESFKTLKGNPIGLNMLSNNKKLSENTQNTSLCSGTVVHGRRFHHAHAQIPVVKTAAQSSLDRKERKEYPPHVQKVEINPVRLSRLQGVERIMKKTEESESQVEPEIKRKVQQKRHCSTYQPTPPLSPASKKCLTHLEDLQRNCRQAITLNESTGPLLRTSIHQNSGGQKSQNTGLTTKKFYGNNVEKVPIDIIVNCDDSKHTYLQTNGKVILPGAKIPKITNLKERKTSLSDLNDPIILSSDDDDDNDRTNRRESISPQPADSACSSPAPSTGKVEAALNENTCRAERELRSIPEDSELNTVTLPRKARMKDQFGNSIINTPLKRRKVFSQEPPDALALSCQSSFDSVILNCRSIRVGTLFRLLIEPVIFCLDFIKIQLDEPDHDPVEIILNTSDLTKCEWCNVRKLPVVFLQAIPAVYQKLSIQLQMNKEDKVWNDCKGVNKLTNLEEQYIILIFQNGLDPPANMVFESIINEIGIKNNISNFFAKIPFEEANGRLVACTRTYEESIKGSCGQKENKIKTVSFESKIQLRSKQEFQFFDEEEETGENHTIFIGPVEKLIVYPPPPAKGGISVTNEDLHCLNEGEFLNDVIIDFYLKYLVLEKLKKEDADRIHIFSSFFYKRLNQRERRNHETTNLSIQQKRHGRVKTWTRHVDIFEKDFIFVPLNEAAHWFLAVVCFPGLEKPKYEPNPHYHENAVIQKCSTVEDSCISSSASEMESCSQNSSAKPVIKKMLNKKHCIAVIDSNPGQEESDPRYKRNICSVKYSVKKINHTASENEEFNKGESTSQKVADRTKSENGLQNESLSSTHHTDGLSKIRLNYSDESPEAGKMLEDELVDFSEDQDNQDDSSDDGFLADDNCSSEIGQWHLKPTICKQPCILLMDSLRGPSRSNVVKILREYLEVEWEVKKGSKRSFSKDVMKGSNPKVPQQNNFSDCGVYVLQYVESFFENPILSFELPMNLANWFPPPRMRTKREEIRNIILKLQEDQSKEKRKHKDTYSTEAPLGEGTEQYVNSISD

[5] = biological target: T5, Caspase-3 (Homo sapiens, UniProt P42574); type: functional;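 further: Dose-response selectivity test against caspase-3 for candidate inhibitors of sentrin-specific proteases (SENPs)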
T5 sequence (P42574 whole entry): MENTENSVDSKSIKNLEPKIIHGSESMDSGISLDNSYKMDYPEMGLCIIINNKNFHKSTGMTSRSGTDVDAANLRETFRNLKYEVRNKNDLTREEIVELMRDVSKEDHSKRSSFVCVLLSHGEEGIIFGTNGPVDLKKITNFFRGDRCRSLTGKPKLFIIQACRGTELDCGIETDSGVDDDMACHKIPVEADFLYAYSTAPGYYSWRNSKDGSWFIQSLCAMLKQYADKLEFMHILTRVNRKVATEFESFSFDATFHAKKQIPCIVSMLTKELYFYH

[6] = tested on: BJ; test: cells; type: functional, cell-based; settings: Homo sapiens
[7] = tested on: BJ; test: cytotoxicity toward BJ-TERT fibroblasts, dose response, cell-based, RAS-independent, luminescence (AID 1933); type: functional; settings: Homo sapiens
[8] = cytotoxicity toward DRD oncogenic fibroblasts, dose response, cell-based, non-viral oncogenic, luminescence (AID 1934); type: functional; settings: Homo sapiens
[9] = tested on: BJ; test: cytotoxicity toward BJ-TERT-LT-ST fibroblasts, dose response, cell-based, RAS-independent, luminescence (AID 1935); type: functional; settings: Homo sapiens;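 further: BJ fibroblasts immortalized with TERT plus LT and ST oncogenes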
[10] = tested on: BJ; test: cytotoxicity toward Ras-transformed BJeLR fibroblasts, dose response, cell-based, alamar blue fluorescence, cherrypicked samples (AID 2631); type: functional; settings: Homo sapiens;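 further: confirmatory dose-response assay in RAS-dependent BJ fibroblasts engineered with TERT, LT and ST, with cytotoxicity read by fluorescence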
[11] = tested on: INS1; test: beta cell apoptosis inhibitors, cytokine rescue, dose response, luminescence, retest (AID 449756); type: functional, cell-based; settings: Rattus norvegicus;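 further: cell death triggered by IL-1 beta plus TNF-alpha plus IFN-gamma mixture; protective hits raise ATP signal compared with cytokine alone wells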
[12] = microbe, parasite or virus in culture; type: functional; settings: Mycobacterium tuberculosis
[13] = biological target: Prothrombin (Homo sapiens, UniProt P00734); test: Thrombin 1536 HTS Dose Response Confirmation. [Related pubchem assays: 1046 (Thrombin 1536 HTS; hits were confirmed in this assay)]; type: functional
[14] = tested on: H4; test: Luminescence Cell-Based Dose Response HTS to Identify Activators of 5'UTR Stem-Loop Driven Prion Protein mRNA Translation in H4 Neuroglioblastoma Cells. [Related pubchem assays: 1829 (Project Summary), 1814 (Primary HTS)]; type: functional; settings: Homo sapiens
[15] = tested on: P388/ADR; test: cells; type: functional; settings: Mus musculus
[16] = tested on: P388; test: cells; type: functional; settings: Mus musculus
[17] = tested on: SN12K1; test: cells; type: functional; settings: Homo sapiens

SMILES: Cc1ccc(NC(=O)CN(C)C(=O)COc2cccc3cccnc23)cc1
- IC50 [1]: 44.5 µM (active)

SMILES: COc1ccc(NC(=O)c2cccc(Oc3ccccc3)c2)cn1
- IC50 [2]: 4.98 µM (active)
- IC50 [3]: 16.4 µM (active)
- IC50 [4]: 15.6 µM (active)
- IC50 [5]: 17.5 µM (active)

SMILES: O=C(Cc1ccc(Cl)cc1)c1c[nH]c(C(=O)NCc2cccnc2)c1
- EC50 [6]: 6.96 µM (active)
- EC50 [7]: 11.3 µM (inconclusive)
- EC50 [8]: > 150 µM (not active)
- EC50 [9]: > 150 µM (inconclusive)
- EC50 [10]: 4.8 µM (active)
- AC50 [11]: 0.907 µM (active)

SMILES: CCN(Cc1ccncc1)Cc1c(O)ccc2cc(Br)ccc12
- IC50 [1]: > 50 µM (not active)

SMILES: COc1cc(CN2CCN(c3ccccc3F)CC2)c([N+](=O)[O-])cc1OC
- IC50 [1]: > 50 µM (not active)

SMILES: Cc1ccc(NS(=O)(=O)c2ccc(NC(=O)CN(c3cc([N+](=O)[O-])ccc3C)S(C)(=O)=O)cc2)c(C)c1
- EC50 [6]: > 75 µM (not active)
- EC50 [7]: 39.7 µM (active)
- EC50 [8]: > 75 µM (not active)
- EC50 [9]: > 150 µM (inconclusive)
- EC50 [10]: > 133 µM (inactive)
- CC50 [12]: 4.92 µM (active)
- AC50 [11]: 1.49 µM (active)

SMILES: CCn1c(SCC(N)=O)nnc1C(C)C
- IC50 [13]: > 50 µM (not active)

SMILES: Cc1ccc(OCC(=O)N2CCC(N3CCCCCC3)CC2)cc1
- IC50 [13]: > 50 µM (not active)

SMILES: Cc1cccc(NC(=O)COc2ccc(Br)cc2C)n1
- IC50 [2]: 4.31 µM (active)
- IC50 [3]: > 100 µM (inactive)
- IC50 [4]: 9.12 µM (active)
- IC50 [5]: 13.9 µM (active)

SMILES: Cn1c(C(=O)Nc2ccc3c(c2)OCO3)cc2sccc21
- IC50 [2]: 4.52 µM (active)
- IC50 [3]: 19.5 µM (active)
- IC50 [4]: 16.1 µM (active)
- EC50 [14]: 35 µM (active)
- IC50 [5]: 14.4 µM (active)

SMILES: CN1CCN(P2(=S)Oc3ccc4ccccc4c3-c3c(ccc4ccccc34)O2)CC1
- GI50 [15]: 26.2 µM (inactive)
- GI50 [16]: 24.1 µM (inactive)
- GI50 [17]: 21.8 µM (inactive)
